This is an account of results in ChEMBL document CHEMBL1133821, “Synthesis and antiinflammatory, analgesic activity of 3,3'-(1,2-ethanediyl)-bis[2-aryl-4-thiazolidinone] chiral compounds. Part 10” (Bioorg Med Chem Lett, 2001).

The subject of data set [1] is Rattus norvegicus. Briefly: Animals with Hyperemia in Carrageenan-induced paw edema test at a dose of 100 mg/kg perorally in rats. Type of data set: functional. Particulars: route oral. A general note: Carrageenan injected into the paw causes an acute inflammation.
Data set [2] relates to Rattus norvegicus. Briefly: Animals with Ulcers in Carrageenan-induced paw edema test at a dose of 100 mg/kg perorally in rats. Particulars: route oral. Type of data set: functional.
Data set [3] deals with Rattus norvegicus. Briefly: Percent Edema variation in Carrageenan-induced paw edema test at a dose of 100 mg/kg perorally in rats after 120 min (p<0.001). Type of data set: functional. Conditions: route oral.
For data set [4], the system named is Rattus norvegicus. Description: Percent Edema variation in Carrageenan-induced paw edema test at a dose of 100 mg/kg perorally in rats after 180 min (p<0.01). Type of data set: functional. Conditions: route oral.
Data set [5] deals with Rattus norvegicus. Description: Percent Edema variation in Carrageenan-induced paw edema test at a dose of 100 mg/kg perorally in rats after 60 min (p<0.01). Type of data set: functional. Conditions: route oral.
Data set [6] has as its system Rattus norvegicus. Description: Percent Edema variation in Carrageenan-induced paw edema test at a dose of 25 mg/kg perorally in rats after 120 min (p<0.01). Conditions: route oral. Type of data set: functional.
The subject of data set [7] is Rattus norvegicus. Briefly: Percent Edema variation in Carrageenan-induced paw edema test at a dose of 25 mg/kg perorally in rats after 180 min (p<0.01). Type of data set: functional. Particulars: route oral.
Data set [8] has as its system Rattus norvegicus. Briefly: Percent Edema variation in Carrageenan-induced paw edema test at a dose of 25 mg/kg perorally in rats after 60 min (p<0.01). Type of data set: functional. Conditions: route oral.
Data set [9] deals with Rattus norvegicus. Description: (§1) Percent Edema variation in Carrageenan-induced paw edema test at a dose of 50 mg/kg perorally in rats after 120 min (p<0.01). Conditions: route oral. Type of data set: functional.
Data set [10] relates to Rattus norvegicus. Briefly: Percent Edema variation in Carrageenan-induced paw edema test at a dose of 50 mg/kg perorally in rats after 180 min (p<0.01). Type of data set: functional. Conditions: route oral.
In data set [11] the test system is Rattus norvegicus. Briefly: Percent Edema variation in Carrageenan-induced paw edema test at a dose of 50 mg/kg perorally in rats after 60 min (p<0.01). Type of data set: functional. Particulars: route oral.
For data set [12], the system named is Rattus norvegicus. Description: Reaction time in Hot plate test at a dose of 100 mg/kg perorally in rats after 180 min (p<0.001). Type of data set: functional. Conditions: route oral.
For data set [13], the system named is Rattus norvegicus. Briefly: Reaction time in Hot plate test at a dose of 100 mg/kg perorally in rats after 60 min (p<0.01). Type of data set: functional. Particulars: route oral. On the technique in general: In hot-plate and tail-flick tests a longer latency is read as antinociception.
The test system of data set [14] is Rattus norvegicus. Description: Analgesic activity was determined using acetic acid writing test at a dose of 100 mg/kg perorally in rats. (p<0.01). Type of data set: functional. Particulars: route oral.
Data set [15] deals with Rattus norvegicus. Briefly: Reaction time in Hot plate test at a dose of 100 mg/kg perorally in rats after 120 min (p<0.01). Type of data set: functional. Conditions: route oral.
Data set [16] has as its system Rattus norvegicus. Description: Number of writhings in Acetic acid Writhing test at a dose of 100 mg/kg perorally in rats. Type of data set: functional. Particulars: route oral. Background: An intraperitoneal irritant provokes the stretching counted in writhing tests.
Data set [17] is described as follows: Minimum concentration which causes 50% of the Artemia salina larvae to lose mobility. Particulars: in vivo. Type of data set: ADME, organism-based.
The nature of data set [18]: Peroral dose causing 50% death of the mice population. Particulars: mouse, in vivo, po. Type of data set: ADME, organism-based.
Data set [19] is described as follows: Animals with Hyperemia in Carrageenan-induced paw edema test at a dose of 25 mg/kg perorally in rats. Type of data set: functional. Particulars: route oral.
Data set [20] in a line: Animals with Hyperemia in Carrageenan-induced paw edema test at a dose of 50 mg/kg perorally in rats. Conditions: route oral. Type of data set: functional.
A short description of data set [21]: Animals with Ulcers in Carrageenan-induced paw edema test at a dose of 25 mg/kg perorally in rats. Type of data set: functional. Particulars: route oral.
Data set [22] can be described thus: (§2) Animals with Ulcers in Carrageenan-induced paw edema test at a dose of 50 mg/kg perorally in rats. Particulars: route oral. Type of data set: functional.
Data set [23] concerns Rattus norvegicus. Description: Percent Edema variation in Carrageenan-induced paw edema test at a dose of 50 mg/kg perorally in rats after 120 min. Type of data set: functional. Particulars: route oral.
The subject of data set [24] is Rattus norvegicus. Description: Reaction time in Hot plate test at a dose of 50 mg/kg perorally in rats after 120 min (p<0.01). Particulars: route oral. Type of data set: functional.
In data set [25] the test system is Rattus norvegicus. Description: Reaction time in Hot plate test at a dose of 50 mg/kg perorally in rats after 180 min (p<0.01). Type of data set: functional. Particulars: route oral.
Data set [26] has as its system Rattus norvegicus. Briefly: Reaction time in Hot plate test at a dose of 50 mg/kg perorally in rats after 60 min (p<0.01). Type of data set: functional. Particulars: route oral.
The test system of data set [27] is Rattus norvegicus. Description: Analgesic activity was determined using acetic acid writing test at a dose of 50 mg/kg perorally in rats. (p<0.01). Type of data set: functional. Conditions: route oral.
Data set [28] concerns Rattus norvegicus. Briefly: Number of writhings in Acetic acid Writhing test at a dose of 50 mg/kg perorally in rats. Particulars: route oral. Type of data set: functional.
Data set [29] relates to Rattus norvegicus. Described as §2. Type of data set: functional. Particulars: route oral.
For data set [30], the system named is Rattus norvegicus. Briefly: (§3) Percent Edema variation in Carrageenan-induced paw edema test at a dose of 50 mg/kg perorally in rats after 60 min. Conditions: route oral. Type of data set: functional.
Data set [31] is described as follows: as §1. Type of data set: functional. Particulars: route oral.
Data set [32] concerns Rattus norvegicus. Briefly: Percent Edema variation in Carrageenan-induced paw edema test at a dose of 100 mg/kg perorally in rats after 180 min (p<0.001). Type of data set: functional. Conditions: route oral.
The subject of data set [33] is Rattus norvegicus. Description: Percent Edema variation in Carrageenan-induced paw edema test at a dose of 100 mg/kg perorally in rats after 60 min. Type of data set: functional. Particulars: route oral.
Data set [34] deals with Rattus norvegicus. Description: Reaction time in Hot plate test at a dose of 100 mg/kg perorally in rats after 180 min. Type of data set: functional. Conditions: route oral.
Data set [35] relates to Rattus norvegicus. Briefly: Analgesic activity was determined using acetic acid writing test at a dose of 100 mg/kg perorally in rats.(p<0.05). Type of data set: functional. Conditions: route oral.
The test system of data set [36] is Rattus norvegicus. Description: Reaction time in Hot plate test at a dose of 100 mg/kg perorally in rats after 120 min. Type of data set: functional. Conditions: route oral.
The nature of data set [37]: Percent Edema variation in Carrageenan-induced paw edema test at a dose of 50 mg/kg perorally in rats after 180 min (p<0.001). Conditions: route oral. Type of data set: functional.
The nature of data set [38]: as §3. Conditions: route oral. Type of data set: functional.
In data set [39] the test system is Rattus norvegicus. Description: Reaction time in Hot plate test at a dose of 100 mg/kg perorally in rats after 60 min (p<0.05). Conditions: route oral. Type of data set: functional.

Each structure is given as a SMILES string. Bounds are passed on as bounds.

By inhibition in vivo is commonly meant the change of the read-out against control, counted positive when it falls. A word on the LC50: it is the concentration lethal to half of the exposed cells or organisms. A low value points to greater toxicity. As usually defined, the LD50 is the dose expected to kill half of the subjects tested. With `COc1ccc([C@H]2SCC(=O)N2CCN2C(=O)CS[C@H]2c2ccc(OC)c(OC)c2)cc1OC`, the Animals in data set [1] was found to be 20%; in data set [2], 0%; in data set [19], 20%; in [20] it was 20%; in [21] it was 0%; in data set [22], 0%. Besides, the Edema variation in data set [3] was -62.33%; in data set [4], -58.01%; in data set [5], -58.28%; in data set [6], -53.28%; in [7], -40.09%; in [8] it was -38.33%. For the same compound, the Edema variation is -59.49% in data set [9], -44.26% in data set [10] and -53.62% in data set [11]. The results for the Reaction time in [12], in data set [13] and in [15] were 36.4 s, 26.6 s and 26.8 s, respectively. The inhibition in vivo at 100 mg/kg in [14] was found to be 51%. The compound further had a No. of writhings in data set [16] of 10. The compound also displayed an LC50 in data set [17] greater than 1000 µg/mL. This compound also came in with an LD50 in data set [18] greater than 1000 mg/kg.
For `CCCCC1C(=O)N(c2ccccc2)N(c2ccccc2)C1=O` [PHENYLBUTAZONE], the Animals in data set [1] came to 100%; in data set [29], 80%. Moreover, the Edema variation in [23] was -5.25%; in data set [10], -39.02%; in [30], -20.27%. Also, the Reaction time in data set [24] was 30 s; in data set [25], 31.7 s; in data set [26], 28.3 s. For the same compound, testing at 50 mg/kg in data set [27] gave an inhibition in vivo of 82%. In data set [28], this compound yielded a No. of writhings of 3.6. In data set [18], this compound returned an LD50 of 300 mg/kg.
As for `COc1ccc([C@H]2SCC(=O)N2CCN2C(=O)CS[C@H]2c2ccc(OC)cc2)cc1`, the Animals in [1] is listed as 40%; in [2] it was 0%; in data set [20], 20%; in data set [22], 0%. Further, the Edema variation is recorded as -75.9% in [3]; -49% in [31]; -96.42% in [32]; 20.23% in data set [33]; -66.97% in data set [37]; 14.08% in data set [38]. For the same compound, the Reaction time in data set [34] is given as 15 s; in [36] it was 15.6 s; in [39], 17 s. Besides, in [35], the inhibition in vivo at 100 mg/kg was 44%. Also, the No. of writhings in data set [16] came out at 11.3. This compound returned an LC50 in data set [17] greater than 1000 µg/mL. Moreover, the LD50 in data set [18] is greater than 1000 mg/kg.
